In patent publication US20220030850A1, “CRYOPRESERVATIVE COMPOSITIONS AND METHODS” (REGENTS OF THE UNIVERSITY OF MINNESOTA, priority 2015, published 2022):

tested on: Jurkat cells; test: 96-well plate freezing, post-thaw scaled raw recovery (calcein-AM/PI); format: cell-based; conditions: 150, 300, 600 mM total sugar; FIG. 8
Protocol: The first phase of this study involved using the DE algorithm to develop a three-component cryopreservation solution used at a single cooling rate (1° C./min). Three components (trehalose, glycerol, and ectoine (TGE)) were selected as components of the exemplary freezing medium used for preservation of Jurkat cells, a hematopoietic model cell type, based on pre-screening of multiple non-DMSO components. For this single cooling rate study, the DE algorithm was programmed to output 18 vector solutions per generation with a weight=0.85 and a crossover=1. Jurkat cells cryopreserved in 10% DMSO at a cooling rate of 1° C./min were used as a control.
Cooling rate influences cell survival, and the preferred cooling rate for a given application can depend, at least in part, on the composition of the freezing medium and the cell type being frozen. […] To assess both cooling rate and the composition of the solution, the DE algorithm was programmed to output 27 vector solutions per generation with weight=0.85 and a crossover=1. Solutions were separated into categories based on their DE algorithm defined cooling rate, and were frozen in batches at a cooling rate of […], 0.5° C./min, 1° C./min, 3° C./min, 5° C./min, or 10° C./min. Results were normalized and scaled raw recovery is reported, allowing results from all cooling rates and all generations to be compared directly. […]
After 96 well plates were thawed, calcein-acetoxymethyl (AM)/propidium iodide was added to each well and the wells were covered from light and placed in a 37° C. incubator for 30 minutes to allow the live cells to cleave calcein-AM. The plates were then analyzed for fluorescence on a plate reader. Raw fluorescence values were used to calculate the number of live and dead cells present in each well by correlating to a control curve of unfrozen cells. The live cell recovery was calculated by dividing the number of live cells present in thawed samples (calcein-AM plate reader fluorescence) by the number of live cells seeded pre-freeze (AO/PI counts). […]

Row | SMILES | recovery of Jurkat cells, sugar synergy study
1 | OC[C@H]1O[C@H](O[C@H]2O[C@H](CO)[C@@H](O)[C@H](O)[C@H]2O)[C@H](O)[C@@H](O)[C@@H]1O [Trehalose] | outperformed monosaccharides

tested on: Jurkat cells; test: Raman microscopy cell penetration study of cryoprotectants; format: cell-based; conditions: Jurkat cells frozen in either glycerol or trehalose; FIG. 12
Protocol: Raman microscopy data provides an indication of the location of action of each cryopreservative. The images in FIG. 12 show Jurkat cells frozen in either glycerol (penetrating) or trehalose (non-penetrating).
These experiments were performed for most of the components described in the sections above both at room temperature and at freezing temperatures to assess whether penetration was temperature dependent.
Confocal Raman Microspectroscopy (CRM) measurements are conducted using Witec Confocal Raman Microscope System Alpha 300R (WITec, Wissenschaftliche Instrumente und Technologie GmbH, Ulm, Germany) with UHTS300 spectrometer and DV401 CCD detector. A wavelength of 532 nm Nd:YAG laser and 10 mW of power is used as excitation source. The laser is transferred to the microscopy in a singer fiber. A 100× air objective (NA 0.90; Nikon Instruments, Melville, N.Y.) is used for focusing the 532 nm excitation laser to the sample. Data collection and analysis are performed by Windows-based WitecControl_1.38 software.

Row | SMILES | location of cryoprotectant in Raman contrast image
2 | OCC(O)CO [Glycerol] | present both inside the cell and in the super cooled liquid surrounding the cell
3 | OC[C@H]1O[C@H](O[C@H]2O[C@H](CO)[C@@H](O)[C@H](O)[C@H]2O)[C@H](O)[C@@H](O)[C@@H]1O [Trehalose] | excluded from the cell

same assay, conditions: Raman microscopy, at room temperature and at freezing temperatures

Row | SMILES | Penetration
4 | OCCO [Ethylene glycol] | Yes
5 | O=C(CO)[C@@H](O)[C@H](O)[C@H](O)CO [Fructose] | Yes
6 | O=C(O)[C@@H]1CCCN1 [Proline] | Yes
7 | OC[C@@H](O)[C@@H](O)[C@H](O)[C@@H](O)CO [Sorbitol] | Yes
8 | CC(C)[C@H](N)C(=O)O [Valine] | Yes

Now from value to compound:

Row | Penetration | SMILES
9 | Yes | C[C@H](N)C(=O)O [Alanine]
10 | Yes | CC1=NCC[C@@H](C(=O)O)N1 [Ectoine]
11 | Yes | OCC(O)CO [Glycerol]
12 | Yes | O[C@H]1[C@H](O)[C@@H](O)[C@H](O)[C@@H](O)[C@H]1O [Inositol]
13 | Yes | OC[C@@H](O)[C@@H](O)[C@H](O)[C@H](O)CO [Mannitol]
14 | Yes | NCCS(=O)(=O)O [Taurine]
15 | Semi* | OC[C@H]1O[C@H](O[C@H]2O[C@H](CO)[C@@H](O)[C@H](O)[C@H]2O)[C@H](O)[C@@H](O)[C@@H]1O [Trehalose]
16 | Yes | OC[C@@H](O)[C@H](O)[C@@H](O)CO [Xylitol]

target: lysozyme (Gallus gallus, UniProt P00698); test: Differential scanning calorimetry, denaturation temperature of lysozyme in osmolyte solution; format: physicochemical; conditions: 1 mg/ml lysozyme in 20 mM HEPES buffer; single osmolytes 600 mM; heated at 1° C./min; pH 7.3
Sequence (P00698 19-147): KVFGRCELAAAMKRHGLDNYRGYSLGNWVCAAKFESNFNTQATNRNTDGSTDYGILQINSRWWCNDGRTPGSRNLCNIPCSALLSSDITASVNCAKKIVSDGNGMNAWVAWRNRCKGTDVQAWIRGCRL
Protocol: Lysozyme powder was dissolved into each solution reaching final concentration of 100 mg/ml and then refrigerated. Lysozyme in DPBS solution was used as control. For DSC measurements, experiment solution was made by dissolving osmolyte into 20 mM HEPES buffer and the concentration of osmolyte in each solution remained same as in DPBS solution. Lysozyme powder was dissolved into each solution reaching final concentration of 1 mg/ml and kept refrigerated. Lysozyme in HEPES buffer was used as control. The pH of solutions was 7.3 measured by Beckman 350 meter. Differential scanning calorimetry was performed on a differential scanning calorimeter (Q1000, TA Instruments, New Castle, Del.). Osmolyte solutions containing lysozyme were heated in order to determine the denaturation temperature of lysozyme. Experimental solutions were heated from room temperature to 90° C. at 1° C./min. Specific heat, Cp, was calculated from the heat flow data assuming Cp as a function of temperature were analyzed using OriginPro software (OriginLab Corp., Northampton, Mass.) to subtract curve baseline. The midpoint temperature, Tm, was obtained as the temperature corresponding to the maximum specific heat value from the baseline and the denaturation temperature was assumed to be Tm^32.

Row | SMILES | Denaturation temperature Tm of lysozyme
17 | CC1=NCC[C@@H](C(=O)O)N1 [Ectoine] | 79.6 °C
18 | OC[C@@H](O)[C@@H](O)[C@H](O)[C@@H](O)CO [Sorbitol] | 83.1 °C

tested on: Jurkat cells; test: High throughput factorial screening with Linear Mixed Effects statistical analysis of recovery; format: cell-based; conditions: statistical analysis of sugar and cooling rate
Protocol: (§1) In another evaluation, cells were combined with factorial combinations of the components listed in Table 5, using one component from each category. Plates including cells and solutions were frozen at cooling rates of 1′C/min, 3′C/min, 5′C/min, or 10′C/min.
(§2) Recovery was calculated by dividing the number of live cells post thaw—calculated using a control curve correlating calcein-acetoxymethyl (AM) fluorescence to cell count—by the number of live cells seeded pre-freeze (AO/PI counts taken prior to freezing). Recovery was normalized by dividing by the DMSO recovery on each plate, then multiplying by a standard DMSO recovery for each cooling rate. This normalized recovery was used to compare samples between different plates and different cooling rates.
(§3) Statistical analysis of the data was performed using a Linear Effects Model. The model associated with best fit was determined using Bayesian Information Criteria. […] The ten best combinations for Jurkats are summarized in Table 6 below, while the eight best combinations for MSCs are summarized in Table 7.
High throughput factorial screening experiments were performed on a Biomek Beckman FX 96 liquid handling robot. Briefly, 12.5 μl of an array of additives were transferred to nine 96-well plates containing 12.5 μl of different sugar alcohols. Cells (25 μl) diluted in either a sugar (in a solution of NORMOSOL-R; Hospira, Inc., Lake Forest, L) or a NORMOSOL-R blank solution were transferred to these nine plates to give a final volume of 50 μl in each well. Cells suspended in […] in media were also included as a row of each plate to serve as normalization wells for plate-to-plate comparison.
When all plate volume transfers were complete, silicone plate covers were used to seal each plate, and plates were transferred to a controlled rate freezer (Kryo 10 Series III, Planer PLC, Middlesex, United Kingdom) and frozen at cooling rates ranging from 1° C./min to 10° C./min. The concentrations of components present in solution are listed in Table 11, and were selected based on values described in literature or solubility limits. Component concentrations were 0 if not listed in a solution.
Plate samples were also assessed for viability using fluorescence. Briefly, a solution of calcein-AM/propidium iodide was prepared and a volume of 50 μl was added to each sample well of experimental 96-well plates, producing a 1:1 dilution. Plates were protected from light and placed in an incubator for 30 minutes to allow for calcein-AM digestion. A fluorescent plate reader (Synergy HT, BioTek Instruments, Inc., Winooski, Vt.) was used to determine the fluorescence in each well, which was correlated to live and dead cell counts using a control curve.
Viability was calculated for all samples by dividing the number of live cells by the number of total cells. Recovery was calculated directly by dividing the number of live cells post thaw by the number of live cells pre-freeze. Recovery for 96-well plate samples was further normalized; each experimental sample recovery was divided by the DMSO recovery on the same plate, and then multiplied by the standard DMSO recovery for the cooling rate of each experiment.
To assess the importance of the four explanatory variables of interest (Sugar, Rate, Additive and Alcohol), without neglecting the variation between each batch and between each plate within the batches, we sought to find the best Linear Mixed Effects (LME) model. […]

Row | SMILES | cooling rate at which cells performed better with the sugar
19 | OC[C@H]1O[C@H](O[C@H]2O[C@H](CO)[C@@H](O)[C@H](O)[C@H]2O)[C@H](O)[C@@H](O)[C@@H]1O [Trehalose] | 5° C./min

same assay, conditions: statistical analysis, data not shown

Row | SMILES | correlation with recovery
20 | O=C(O)[C@@H]1CCCN1 [Proline] | negatively correlated
21 | OC[C@@H](O)[C@@H](O)CO [erythritol] | negatively correlated
22 | OC[C@@H](O)[C@@H](O)[C@@H](O)CO [ribitol] | negatively correlated

tested on: MSCs; test: as above; format: cell-based, human; conditions: statistical analysis
Protocol: as §1, §2, §3
To assess the importance of the four explanatory variables of interest (Sugar, Rate, Additive and Alcohol), without neglecting the variation between each batch and between each plate within the batches, we sought to find the best Linear Mixed Effects (LME) model. With yi the i'th outcome of the response, Xi the corresponding values of the covariates, the LME model is defined as
To select the most fitting model, we performed backward elimination based on the Bayesian Information Criterion (BIC) starting with a model that includes all variables and second order interactions. Furthermore, we included two random variables, one to catch the effect of the batch, and one to catch the effect of each plate within the batch—i.e., the full model is: […]

Row | SMILES | correlation with recovery
23 | OCC(O)CO [Glycerol] | positively correlated
24 | O=C(O)[C@@H]1CCCN1 [Proline] | negatively correlated
25 | OC[C@@H](O)[C@@H](O)[C@H](O)[C@@H](O)CO [Sorbitol] | positively correlated
26 | CC(C)[C@H](N)C(=O)O [Valine] | negatively correlated
27 | OC[C@@H](O)[C@@H](O)CO [erythritol] | negatively correlated
28 | OC[C@@H](O)[C@@H](O)[C@@H](O)CO [ribitol] | negatively correlated

same assay, conditions: statistical analysis of sugar and cooling rate

Row | SMILES | cooling rate at which cells performed better with the sugar
29 | OC[C@H]1O[C@H](O[C@H]2O[C@H](CO)[C@@H](O)[C@H](O)[C@H]2O)[C@H](O)[C@@H](O)[C@@H]1O [Trehalose] | 10° C./min
